≈ marks a conversion by molar mass, not a printed value.
Key:
[1] = tested on: CaCl2; assay: Antifungal sensitivity testing (broth microdilution MIC); type: cell-based; details: Table 4; 96-well broth microdilution
Method: Antifungal Sensitivity Testing. Minimum inhibitory concentrations (MICs) were determined in flat bottom, 96-well plate format using a modified broth microdilution protocol as previously described (Singh et al., PLoS Pathog. 5, e1000532 (2009); LaFayette et al., PLoS Pathog. 6, 79-80 (2010)). Compounds were formulated in dimethyl sulfoxide (DMSO, Sigma-Aldrich Co.); fluconazole was dissolved in sterile ddH2O. Each compound was tested in duplicate in at least two independent experiments. To test for fungicidal activity, cultures from MIC plates were spotted on YPD agar plates using a spotter (Frogger, V&P Scientific, Inc.). Plates were photographed after 24 h of incubation at 30° C.

[2] = target: Hsp90 Nuclear Binding Domain (NBD) (Candida albicans (strain SC5314 / ATCC MYA-2876) (Yeast), UniProt P46598); assay: Surface Plasmon Resonance (SPR) binding, C. albicans Hsp90 NBD; details: biotinylated Hsp90 NBD on streptavidin chip, 25° C., 1:1 binding model
Method: (§1) Surface Plasmon Resonance (SPR) Experiments. SPR experiments were performed on a Biacore S200 instrument at 25° C. Biotinylated Hsp90 Nuclear Binding Domain (NBD) was diluted to 40 μg/mL and immobilized on a streptavidin chip (Sensor Chip SA, GE Healthcare) at a density of 2000-2500 response units (RU) on the biosensor surface.
(§2) Recombinant Hsp90 NBDs were expressed and purified as previously described (Whitesell et al., Nat Commun 10, 402 (2019)) with the following modification; Hsp90 NBD expression constructs were modified to encode a C-terminal AviTag for site-specific on-column biotinylation with a BirA biotin-ligase kit (Avidity LLC; BirA-500). Stock protein solutions in 50% glycerol were stored at −20° C. until dilution into relevant buffers. Binding experiments were done in HBS-P (0.01 M HEPES, pH 7.4, 0.15 M NaCl, 0.005% v/v surfactant P20, GE Healthcare) with 2% DMSO at flow rate of 40 μL/min. Test compounds (dilution series) were injected with a 60 s association time and 600 s dissociation time. Resulting sensorgrams were analyzed with a fit to a 1:1 binding model, using BIA evaluation software.

[3] = target: Hsp90 Nuclear Binding Domain (NBD) (Aspergillus fumigatus, UniProt P40292); assay: Surface Plasmon Resonance (SPR) binding, A. fumigatus Hsp90 NBD; details: biotinylated Hsp90 NBD on streptavidin chip, 25° C., 1:1 binding model; NB undefined
Method: as §1, §2

Sequence of Hsp90 Nuclear Binding Domain (NBD) (Candida albicans (strain SC5314 / ATCC MYA-2876) (Yeast), UniProt P46598) (P46598 1-218 limits assumed): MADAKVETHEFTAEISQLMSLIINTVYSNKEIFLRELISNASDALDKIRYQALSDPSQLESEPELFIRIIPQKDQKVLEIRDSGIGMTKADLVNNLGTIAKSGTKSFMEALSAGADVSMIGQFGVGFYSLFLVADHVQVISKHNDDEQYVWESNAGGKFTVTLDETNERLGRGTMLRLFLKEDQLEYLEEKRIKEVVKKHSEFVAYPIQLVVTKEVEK
Sequence of Hsp90 Nuclear Binding Domain (NBD) (Aspergillus fumigatus, UniProt P40292) (P40292 whole entry, looked up, the tested form may be a part): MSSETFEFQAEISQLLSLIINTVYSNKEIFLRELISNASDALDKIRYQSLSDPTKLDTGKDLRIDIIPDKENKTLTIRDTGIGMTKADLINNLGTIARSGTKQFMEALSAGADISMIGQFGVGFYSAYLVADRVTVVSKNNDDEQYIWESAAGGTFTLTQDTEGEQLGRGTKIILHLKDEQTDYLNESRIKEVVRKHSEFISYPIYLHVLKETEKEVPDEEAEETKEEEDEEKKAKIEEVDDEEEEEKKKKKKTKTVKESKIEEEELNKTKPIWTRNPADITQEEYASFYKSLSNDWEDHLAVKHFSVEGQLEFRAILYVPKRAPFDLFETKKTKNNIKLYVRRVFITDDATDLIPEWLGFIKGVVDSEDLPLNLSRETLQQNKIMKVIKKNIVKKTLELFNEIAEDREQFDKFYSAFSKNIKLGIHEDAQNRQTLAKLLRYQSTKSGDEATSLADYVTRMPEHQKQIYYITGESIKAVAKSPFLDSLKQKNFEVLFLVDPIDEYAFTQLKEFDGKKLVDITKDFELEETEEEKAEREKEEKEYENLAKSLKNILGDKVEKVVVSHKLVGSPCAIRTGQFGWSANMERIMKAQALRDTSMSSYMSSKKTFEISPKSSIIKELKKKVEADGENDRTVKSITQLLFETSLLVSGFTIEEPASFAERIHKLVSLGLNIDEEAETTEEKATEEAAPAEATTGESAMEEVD

## CN(Cc1cc2c(nc(N)c(=O)n2-c2ccc3c(c2)N(c2ccccc2)CCO3)s1)C1CCN(CC(O)(Cn2cncn2)c2ccc(F)cc2F)CC1 (stereo not shown) [Compound I-119, 3-amino-6-(((1-(2-(2,4-difluorophenyl)-2-hydroxy-3-(1H-1,2,4-triazol-1-yl)propyl)piperidin-4-yl)(methyl)amino)methyl)-1-(4-phenyl-3,4-dihydro-2H-benzo[b][1,4]oxazin-6-yl)thieno[2,3-b]pyrazin-2(1H)-one]
[1]
  MIC50: 6.5 µM (≈ 4.81 µg/mL)

## Nc1nc2sc(CN[C@@H]3CCCN(CC(O)(Cn4cncn4)c4ccc(F)cc4F)C3)cc2n(-c2ccc3c(c2)N(c2ccccc2)CCO3)c1=O (stereo partly drawn) [Compound I-75, 3-amino-6-((((3R)-1-(2-(2,4-difluorophenyl)-2-hydroxy-3-(1H-1,2,4-triazol-1-yl)propyl)piperidin-3-yl)amino)methyl)-1-(4-phenyl-3,4-dihydro-2H-benzo[b][1,4]oxazin-6-yl)thieno[2,3-b]pyrazin-2(1H)-one]
[2]
  Kd: 0.233 µM
[3]
  Kd: 0.34 µM
[1]
  MIC50: 4 µM (≈ 2.9 µg/mL)

## Nc1nc2sc(CN[C@H]3CCCN(CC(O)(Cn4cncn4)c4ccc(F)cc4F)C3)cc2n(-c2ccc3c(c2)N(c2ccccc2)CCO3)c1=O (stereo partly drawn) [Compound I-79, 3-amino-6-((((3S)-1-(2-(2,4-difluorophenyl)-2-hydroxy-3-(1H-1,2,4-triazol-1-yl)propyl)piperidin-3-yl)amino)methyl)-1-(4-phenyl-3,4-dihydro-2H-benzo[b][1,4]oxazin-6-yl)thieno[2,3-b]pyrazin-2(1H)-one]
[2]
  Kd: 0.877 µM
[3]
  Kd: 1.02 µM
[1]
  MIC50: 3 µM (≈ 2.18 µg/mL)

## Nc1nc2sc(C(=O)Nc3ccc(COC4CCN(CC(O)(Cn5cncn5)c5ccc(F)cc5F)CC4)cc3)cc2n(-c2ccc3c(c2)N(c2ccccc2)CCO3)c1=O (stereo not shown) [Compound I-46, 3-amino-N-(4-(((1-(2-(2,4-difluorophenyl)-2-hydroxy-3-(1H-1,2,4-triazol-1-yl)propyl)piperidin-4-yl)oxy)methyl)phenyl)-2-oxo-1-(4-phenyl-3,4-dihydro-2H-benzo[b][1,4]oxazin-6-yl)-1,2-dihydrothieno[2,3-b]pyrazine-6-carboxamide]
[1]
  MIC50: 0.85 µM (≈ 0.719 µg/mL)

## Nc1nc2sc(C(=O)NC3CCCN(CC(O)(Cn4cncn4)c4ccc(F)cc4F)CC3)cc2n(-c2ccc3c(c2)N(c2ccccc2)CCO3)c1=O (stereo not shown) [Compound I-50, 3-amino-N-(1-(2-(2,4-difluorophenyl)-2-hydroxy-3-(1H-1,2,4-triazol-1-yl)propyl)azepan-4-yl)-2-oxo-1-(4-phenyl-3,4-dihydro-2H-benzo[b][1,4]oxazin-6-yl)-1,2-dihydrothieno[2,3-b]pyrazine-6-carboxamide]
[2]
  Kd: 0.0427 µM
[1]
  MIC50: 3.25 µM (≈ 2.45 µg/mL)

## Nc1nc2sc(CNC3[C@@H]4CC[C@H]3CN(CC(O)(Cn3cncn3)c3ccc(F)cc3F)C4)cc2n(-c2ccc3c(c2)N(c2ccccc2)CCO3)c1=O (stereo partly drawn) [Compound I-116, 3-amino-6-((((1R,5S)-3-(2-(2,4-difluorophenyl)-2-hydroxy-3-(1H-1,2,4-triazol-1-yl)propyl)-3-azabicyclo[3.2.1]octan-8-yl)amino)methyl)-1-(4-phenyl-3,4-dihydro-2H-benzo[b][1,4]oxazin-6-yl)thieno[2,3-b]pyrazin-2(1H)-one]
[2]
  Kd: 1.35 µM
[1]
  MIC50: 3 µM (≈ 2.26 µg/mL)

## Nc1nc2sc(C(=O)Nc3ccc(N4CCN(CC(O)(Cn5cncn5)c5ccc(F)cc5F)CC4)cc3)cc2n(-c2ccc3c(c2)N(c2ccccc2)CCO3)c1=O (stereo not shown) [Compound I-8, 3-amino-N-(4-(4-(2-(2,4-difluorophenyl)-2-hydroxy-3-(1H-1,2,4-triazol-1-yl)propyl)piperazin-1-yl)phenyl)-2-oxo-1-(4-phenyl-3,4-dihydro-2H-benzo[b][1,4]oxazin-6-yl)-1,2-dihydrothieno[2,3-b]pyrazine-6-carboxamide]
[1]
  MIC50: 0.75 µM (≈ 0.613 µg/mL)
